These results are taken from EPA's ToxValDB 9.5 (doi:10.2903/j.efsa.2007.107r).

The subject of one series is Oryctolagus sp. Conditions: developmental; development.
The subject of another series is Daphnia magna. Conditions: chronic/long-term; duration: 21 days.
Another series deals with Tagia sp. To be noted: acute; duration: 14 days; mortality.
For a further series, the system named is Apis mellifera. Conditions: acute; oral; unspecified; mortality.
For the next series, the system named is Typhlodromus pyri. As to the kind of experiment: LR50; higher = less toxic. To be noted: acute; duration: 7 days; reproduction.

Some results are limits rather than exact numbers.

On to `CC(C)OC(=O)N[C@H](C(=O)N[C@H](C)c1nc2ccc(F)cc2s1)C(C)C` [Benthiavalicarb-isopropyl], for which the LC50 with Oncorhynchus mykiss (acute, duration: 96 hours, mortality) is > 10 µg/mL; with Tagia sp., > 500 mg/kg; with Colinus virginianus (acute, oral, diet, mortality) it was > 937 mg/kg-day. In addition, the NOEC in the series on Oncorhynchus mykiss (chronic/long-term, duration: 28 days) was found to be 1 mg/L; with Daphnia magna, 3 mg/L. Also, the NOAEL (as a rule, the highest tested level that showed no adverse finding) is 20 mg/kg-day with Oryctolagus sp.; 9.9 mg/kg-day with Rattus norvegicus (chronic, duration: 2 years, clinical chemistry); 10 mg/kg-day in the series on Rattus norvegicus (reproduction developmental, organ weight). In addition, the LD50 with Rattus norvegicus (acute, oral, mortality) was > 5000 mg/kg; with Apis mellifera, > 100 µg/piece; in the series on Colinus virginianus (acute, oral, mortality), > 2000 mg/kg. In the series on Colinus virginianus (reproduction developmental, duration: 24 weeks), this molecule came in with an NOEL of 105 mg/kg-day. The same molecule came in with an LR50 in the series on Typhlodromus pyri of 290 g/ha.
